Test results as given in paper PMC9495676, “Evaluation of the Antimicrobial Properties of a Natural Peptide from Vespa mandarinia Venom and Its Synthetic Analogues as a Possible Route to Defeat Drug-Resistant Microbes” (Biology, 2022).
No end group written: not given here.

Legend:
E. coli biofilm = assay: Antibiofilm assay (MBIC/MBEC), crystal violet; assay type: cell-based, Escherichia coli; conditions: LB, 595 nm, nine replicates from three independent experiments; for MBIC: E. coli biofilm inhibition; for MBEC: E. coli preformed 24 h biofilm, peptide 24 h at 37 °C
Method: (§1) The minimal biofilm inhibitory concentration assay (MBIC) and minimal biofilm eradication concentration assay (MBEC) were performed on each of the peptides using Gram-positive bacteria cultured in Tryptic Soy Broth (TSB, Sigma-Aldrich, St. Louis, MO, USA) and Gram-negative bacteria cultured in Luria-Bertani broth (LB, Thermo Fisher Scientific, Carlsbad, CA, USA). The seeding concentration in 96-well plates of bacterial suspension was the same as for the anti-bacterial assay, and a UV spectrophotometer set to 550 nm was used to detect OD values. Melittin was used as a positive control. For MBIC, peptide solution was mixed with bacterial suspension at first to test if it could inhibit the growth of biofilm. However, for minimal biofilm eradication (MBEC) assays, biofilm was formed in 96-well plates at 37 °C for 24 h after seeding bacteria; afterwards, it was washed by sterile PBS twice. Peptide solutions, prepared with culture broth, were added to […] the biofilms by incubating at 37 °C for 24 h. Both plates were washed by PBS twice and stained by 125 µL 0.1% crystal violet solution (Sigma-Aldrich, Gillingham, UK). The stain was dissolved in 150 µL 30% acetic acid (Sigma-Aldrich, Gillingham, UK). The absorbance values of 100 µL solution from each well, were analysed by using a Synergy HT plate reader (Biotech, Minneapolis, MN, USA) set at 595 nm.

S. aureus biofilm = assay: Antibiofilm assay (MBIC/MBEC), crystal violet; assay type: cell-based, Staphylococcus aureus; conditions: TSB, 595 nm, nine replicates from three independent experiments; for MBIC: S. aureus biofilm inhibition; for MBEC: S. aureus preformed 24 h biofilm, peptide 24 h at 37 °C
Method: as §1

MRSA biofilm = assay: Antibiofilm assay (MBIC/MBEC), crystal violet; assay type: cell-based, methicillin-resistant Staphylococcus aureus; conditions: TSB, 595 nm, nine replicates from three independent experiments; for MBIC: MRSA biofilm inhibition; for MBEC: MRSA preformed 24 h biofilm, peptide 24 h at 37 °C
Method: as §1

K. pneumoniae biofilm = assay: Antibiofilm assay (MBIC/MBEC), crystal violet; assay type: cell-based, Klebsiella pneumoniae; conditions: LB, 595 nm, nine replicates from three independent experiments; for MBIC: K. pneumoniae biofilm inhibition; for MBEC: K. pneumoniae preformed 24 h biofilm, peptide 24 h at 37 °C
Method: as §1

P. aeruginosa biofilm = assay: Antibiofilm assay (MBIC/MBEC), crystal violet; assay type: cell-based, Pseudomonas aeruginosa; conditions: LB, 595 nm, nine replicates from three independent experiments; for MBIC: P. aeruginosa biofilm inhibition; for MBEC: P. aeruginosa preformed 24 h biofilm, peptide 24 h at 37 °C
Method: as §1

E. faecalis biofilm = assay: Antibiofilm assay (MBIC/MBEC), crystal violet; assay type: cell-based, Enterococcus faecalis; conditions: TSB, 595 nm, nine replicates from three independent experiments; for MBIC: E. faecalis biofilm inhibition; for MBEC: E. faecalis preformed 24 h biofilm, peptide 24 h at 37 °C
Method: as §1

C. albicans (ATCC 10231) = assay: MIC/MBC broth dilution assay; assay type: cell-based, Candida albicans; conditions: 37 °C overnight, nine replicates from three independent experiments; for MIC: broth dilution, Yeast Extract Peptone Dextrose, 5 × 10^5 CFU/mL, OD 550 nm; for MBC: sub-culture on agar plates
Method: (§2) The minimal inhibitory concentration assay (MIC) and minimum bactericidal concentration assay (MBC) of the peptide were carried out using the broth dilution method. Seven microbes, including the Gram-positive bacteria, S. aureus (NCTC 6538), MRSA, (ATCC 12493) and Enterococcus faecalis (E. faecalis) (NCTC 12697); Gram-negative bacteria, E. coli (ATCC 8739), Klebsiella pneumoniae (K. pneumoniae) (ATCC 43816) and Pseudomonas aeruginosa (P. aeruginosa) (ATCC 9027); and a yeast, C. albicans (ATCC 10231), were used in these assays and incubated with peptide at 37 °C overnight. The growth culture media were Yeast Extract Peptone Dextrose for C. albicans and Mueller–Hinton broth for others. The concentration of microbes was detected by measuring OD values through the use of a UV spectrophotometer set to 550 nm. C. albicans assays required 10^6 colony forming units (CFU)/mL, while others were incubated with 10^8 CFU/mL and verified by viable cell counts. All of the inocula were diluted to final concentrations of 5 × 10^5 CFU/mL. The concentration of peptides ranged from 1 µM to 512 µM (C = 1, 2, 4, 8, 16, 32, 64, 128, 256, 512 µM). Two mg/mL of amphotericin B for C. albicans and 2 mg/mL norfloxacin for others were applied as positive controls, and 1% of dimethyl sulphoxide (DMSO) was applied as a vehicle control. The 96-well plates were analysed at 550 nm using an ELISA plate reader (Biolise BioTek EL808, Winooski, VT, USA).
(§3) After analysing the growth situation of microbial cultures from each concentration, 10 µL of the inhibited cultures (the peptide concentration ranges from MIC to maximum concentration) were selected to sub-culture onto the Mueller–Hinton agar (MHA) plates. The plates were incubated overnight at 37 °C. After incubation, the lowest concentration on the MHA plates with no bacterial growth was regarded as the MBC value.

[1] = tested on: K. pneumoniae (ATCC 43816); assay: MIC/MBC broth dilution assay; assay type: cell-based, Klebsiella pneumoniae; conditions: 37 °C overnight, nine replicates from three independent experiments; for MIC: broth dilution, Mueller–Hinton broth, 5 × 10^5 CFU/mL, OD 550 nm
Method: as §2, §3

MRSA (ATCC 12493) = assay: MIC/MBC broth dilution assay; assay type: cell-based, methicillin-resistant Staphylococcus aureus; conditions: 37 °C overnight, nine replicates from three independent experiments; for MIC: broth dilution, Mueller–Hinton broth, 5 × 10^5 CFU/mL, OD 550 nm; for MBC: sub-culture on MHA
Method: as §2, §3

horse erythrocytes = assay: Haemolysis assay; assay type: cell-based; conditions: 37 °C, 2 h; for HC50 (peptide concentration that caused 50% lysis of horse red blood cells): 4% (v/v) defibrinated horse erythrocytes, 550 nm, normalised to 1% Triton X-100, calculated from the haemolysis curve
Method: Defibrinated horse erythrocytes (TCS Biosciences Ltd., Buckingham, UK) were used in the haemolysis assay. Peptides, from 1 μM to 512 μM, were tested with a 4% (v/v) erythrocyte suspension and were incubated at 37 °C for 2 h, while 1% Triton X-100 (Sigma-Aldrich, St. Louis, MO, USA) was acted as a positive control and phosphate-buffered saline (PBS) was used as a negative control. The sample supernatants were analysed at 550 nm on an ELISA plate reader (Biolise BioTek EL808, Winooski, VT, USA).

E. faecalis (NCTC 12697) = assay: MIC/MBC broth dilution assay; assay type: cell-based, Enterococcus faecalis; conditions: 37 °C overnight, nine replicates from three independent experiments; for MIC: broth dilution, Mueller–Hinton broth, 5 × 10^5 CFU/mL, OD 550 nm; for MBC: sub-culture on MHA
Method: as §2, §3

[2] = tested on: P. aeruginosa (ATCC 9027); assay: MIC/MBC broth dilution assay; assay type: cell-based, Pseudomonas aeruginosa; conditions: 37 °C overnight, nine replicates from three independent experiments; for MIC: broth dilution, Mueller–Hinton broth, 5 × 10^5 CFU/mL, OD 550 nm; for MBC: sub-culture on MHA
Method: as §2, §3

E. coli (ATCC 8739) = assay: MIC/MBC broth dilution assay; assay type: cell-based, Escherichia coli; conditions: 37 °C overnight, nine replicates from three independent experiments; for MIC: broth dilution, Mueller–Hinton broth, 5 × 10^5 CFU/mL, OD 550 nm; for MBC: sub-culture on MHA
Method: as §2, §3

S. aureus (NCTC 6538) = assay: MIC/MBC broth dilution assay; assay type: cell-based, Staphylococcus aureus; conditions: 37 °C overnight, nine replicates from three independent experiments; for MIC: broth dilution, Mueller–Hinton broth, 5 × 10^5 CFU/mL, OD 550 nm; for MBC: sub-culture of inhibited cultures on MHA
Method: as §2, §3

Gram-positive bacteria = assay: MIC broth dilution assay, summary over Gram-positive bacteria; assay type: cell-based; conditions: range over S. aureus, MRSA, E. faecalis
Method: as §2, with “Two mg/mL of amphotericin B for C. albicans and 2 mg/mL norfloxacin for others were applied as positive controls, and 1% of dimethyl sulphoxide (DMSO) was applied as a vehicle control.” left out, “USA). […]” for “USA).”

Row | Compound | MBIC (E. coli biofilm) | MBIC (S. aureus biofilm) [µM] | MBIC (MRSA biofilm) [µM] | MBIC (K. pneumoniae biofilm) | MBIC (P. aeruginosa biofilm) | MBIC (E. faecalis biofilm) [µM] | MIC (C. albicans (ATCC 10231)) [µM] | MBEC (E. coli biofilm) | MIC [1] [µM] | MIC (MRSA (ATCC 12493)) [µM] | MBC (MRSA (ATCC 12493)) | MBEC (S. aureus biofilm) [µM] | HC50 (peptide concentration that caused 50% lysis of horse red blood cells) (horse erythrocytes) [µM] | MBEC (MRSA biofilm) [µM] | MBEC (K. pneumoniae biofilm) | MIC (E. faecalis (NCTC 12697)) | MBEC (P. aeruginosa biofilm) | MIC [2] [µM] | MIC (E. coli (ATCC 8739)) [µM] | MBC (S. aureus (NCTC 6538)) | further results
1 | CC[C@H](C)[C@H](NC(=O)CN)C(=O)NCC(=O)N[C@@H](C)C(=O)N[C@H](C(=O)N[C@@H](CC(C)C)C(=O)N[C@@H](CCCCN)C(=O)N[C@H](C(=O)N[C@@H](CC(C)C)C(=O)N[C@H](C(=O)N[C@H](C(=O)NCC(=O)N[C@@H](CC(C)C)C(=O)N1CCC[C@H]1C(=O)N[C@@H](C)C(=O)N[C@@H](CC(C)C)C(=O)N[C@H](C(=O)N[C@@H](CO)C(=O)N[C@@H](Cc1c[nH]c2ccccc12)C(=O)N[C@H](C(=O)N[C@@H](CCCCN)C(=O)N[C@@H](CCCNC(=N)N)C(=O)N[C@@H](CCCCN)C(=O)N[C@@H](CCCNC(=N)N)C(=O)N[C@@H](CCC(N)=O)C(=O)N[C@@H](CCC(N)=O)C(N)=O)[C@@H](C)CC)[C@@H](C)CC)[C@@H](C)O)[C@@H](C)O)C(C)C)C(C)C [Melittin, reference compound] | 32 µM | 4 | 8 | 128 µM | 64 µM | 8 | – | – | – | – | – | – | – | – | – | – | – | – | – | – | –
2 | FLGIIGKLLSGLL-NH2 [VM-3G] | 256 µM | 2 | 2 | >512/>512 µM | >512/>512 µM | 8 | >512 | > 512 µM | >512 | 2 | 2 µM | 32 | 9.686 | 32 | >512/>512 µM | 4 µM | >512/>512 µM | 128 | 64 | 1 µM | MBC (E. faecalis (NCTC 12697)): 4 µM; MBC [2]: 128 µM; MBEC (E. faecalis biofilm): > 512 µM; MBC (E. coli (ATCC 8739)): 128 µM; MIC (S. aureus (NCTC 6538)): 1 µM
3 | FLKIIGKLLSGLL-NH2 [VM-3K] | 16 µM | 2 | 2 | 64 µM | 32 µM | 4 | 32 | > 512 µM | 32 | 1 | 2 µM | 32 | 11.2 | 64 | > 512 µM | 2/2 µM | > 512 µM | 16 | 8 | 1 µM | MBC (C. albicans (ATCC 10231)): 32 µM; MBC ([1]; sub-culture on MHA): 32 µM; MBC [2]: 16 µM; MBEC (E. faecalis biofilm): > 512 µM; MBC (E. coli (ATCC 8739)): 8 µM; MIC (S. aureus (NCTC 6538)): 1 µM
4 | FLPIIGKLLSGLL-NH2 [VM] | >512/>512 µM | 8 | 8 | >512/>512 µM | >512/>512 µM | – | – | >512/>512 µM | >512 | 4 | 4 µM | 64 | 44.43 | 64 | >512/>512 µM | 16 µM | >512/>512 µM | >512 | 256 | 4 µM | MBC (C. albicans (ATCC 10231)): 32/32 µM; MICs against Gram-positive bacteria (Gram-positive bacteria): 4 to 16 µM; maximum concentration that caused less than 10% haemolysis (horse erythrocytes; 4% horse erythrocytes): 16 µM; MBC (E. faecalis (NCTC 12697)): 16 µM; MBC (E. coli (ATCC 8739)): 256 µM; MIC (S. aureus (NCTC 6538)): 4 µM
5 | FLWIIGKLLSGLL-NH2 [VM-3W] | >512/>512 µM | 4 | 4 | >512/>512 µM | >512/>512 µM | 16 | >512 | >512/>512 µM | >512 | 2 | 2 µM | 128 | 9.682 | 128 | >512/>512 µM | 4 µM | >512/>512 µM | >512 | >512 | 1 µM | MBC (E. faecalis (NCTC 12697)): 4 µM; MBEC (E. faecalis biofilm): > 512 µM; MIC (S. aureus (NCTC 6538)): 1 µM
6 | FLYIIGKLLSGLL-NH2 [VM-3Y] | >512/>512 µM | 2 | 2 | >512/>512 µM | >512/>512 µM | 64 | >512 | >512/>512 µM | >512 | – | 2/2 µM | 128 | 211.2 | 64 | >512/>512 µM | 4 µM | >512/>512 µM | >512 | >512 | 2/2 µM | MBC (E. faecalis (NCTC 12697)): 4 µM; MBEC (E. faecalis biofilm): > 512 µM
